US12370161B2, “Composition for treating atopy or pruritus comprising N-acetyl or N-acyl amino acid” (STEMDR INC., priority 2017, dated 2025)
Entries after “also recorded” stand apart in the source; their conditions may differ.

Key:
[1] = system: atopic dermatitis-induced Balb/c mouse; assay: SCORAD clinical skin score, DNFB-induced atopic dermatitis in Balb/c mouse; assay type: in vivo; parameters: key to Mouse 1 Sum / Mean (of Sum, SCORAD) / Mouse 2 Sum / Mouse 3 Sum: sum of symptom grades, each 0 (none) to 3 (severe); conditions: for skin-soothing and atopic dermatitis-treating effect (SCORAD, Table 1, FIG. 2A): Balb/c atopic dermatitis model, 0.1% topical, P<0.05 versus DNFB group; for apparent degree of dermatitis (back skin images, FIG. 2B): Balb/c, treated for 7 days, day 29; for Mouse 1 Erythema / Mouse 1 Abrasion / Mouse 1 Dryness / Mouse 1 Edema / Mouse 1 Eschar / Mouse 1 Lichenification / Mouse 1 Sum / Mouse 2 Abrasion / Mouse 2 Dryness / Mouse 2 Edema / Mouse 2 Erythema / Mouse 2 Eschar / Mouse 2 Lichenification / Mouse 2 Sum / Mouse 3 Abrasion / Mouse 3 Dryness / Mouse 3 Edema / Mouse 3 Erythema / Mouse 3 Eschar / Mouse 3 Lichenification / Mouse 3 Sum / Mean (of Sum, SCORAD): DNFB Balb/c; for Mouse 1 Erythema: 0.1% in PBS, 200 μL on back skin daily day 22-28, grade 0-3 (0 no symptom, 1 mild, 2 moderate, 3 severe); for Mouse 1 Abrasion / Mouse 1 Dryness / Mouse 1 Edema / Mouse 1 Eschar / Mouse 1 Lichenification / Mouse 1 Sum / Mouse 2 Abrasion / Mouse 2 Dryness / Mouse 2 Edema / Mouse 2 Erythema / Mouse 2 Eschar / Mouse 2 Lichenification / Mouse 2 Sum / Mouse 3 Abrasion / Mouse 3 Dryness / Mouse 3 Edema / Mouse 3 Erythema / Mouse 3 Eschar / Mouse 3 Lichenification / Mouse 3 Sum / Mean (of Sum, SCORAD): 0.1% topical day 22-28; for Mouse 1 Abrasion / Mouse 1 Dryness / Mouse 1 Edema / Mouse 1 Eschar / Mouse 1 Lichenification / Mouse 2 Abrasion / Mouse 2 Dryness / Mouse 2 Edema / Mouse 2 Erythema / Mouse 2 Eschar / Mouse 2 Lichenification / Mouse 3 Abrasion / Mouse 3 Dryness / Mouse 3 Edema / Mouse 3 Erythema / Mouse 3 Eschar / Mouse 3 Lichenification: grade 0-3; for Mouse 1 Sum / Mouse 2 Sum / Mouse 3 Sum: overall dermatitis score, sum of individual scores; for Mean (of Sum, SCORAD): mean of 3 mice
Summary of the method: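 Mice sensitized with 0.35% DNFB on shaved back, then challenged with 0.25% DNFB on days 6–27; 0.1% N-acetyl/N-acylamino acid in PBS applied topically daily days 22–28, 12 h apart from DNFB. Blinded SCORAD: six symptoms each graded 0–3, summed.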

[2] = system: interferon γ; assay: Interferon γ mRNA in skin tissue by quantitative real-time PCR, Nc/Nga; assay type: in vivo, mouse; conditions: atopy-induced Nc/Nga mice, normalized to β-actin
Experimental: (§1) After isolating total RNA from the atopy-induced skin tissue using 500 μL of Trizol (Life Technologies, USA) according to the manufacturer's protocol and synthesizing cDNA using the Superscript III reverse transcriptase (Life Technologies, USA), real-time PCR was conducted by reacting with the primers of IL4 and interferon γ to be analyzed. The real-time PCR was conducted on a StepOne Plus PCR cycler (Applied Biosystems) using SYBR Green (Applied Biosystems, Foster City, CA). The mRNA expression data were analyzed by the ΔΔCT method and were normalized to β-actin for gene detection. The primers necessary for the real-time PCR were purchased from Qiagen (USA). […] IL4 is known to induce TH2 response and interferon γ is known to induce TH1 response.

[3] = system: IL4; assay: IL4 mRNA in skin tissue by quantitative real-time PCR, Balb/c; assay type: in vivo, mouse; conditions: atopy-induced Balb/c mice, normalized to β-actin
Experimental: as §1

[4] = system: atopic dermatitis-induced Nc/Nga mouse; assay: Hematoxylin/eosin staining of back skin tissue, epidermal and dermal thickness; assay type: in vivo; conditions: 5 μm slices
Excerpt: After extracting back skin tissues of the atopic dermatitis-induced and drug-treated Nc/Nga mice of Example 2, the tissues were fixed with an Accustain formalin-free fixative solution and then prepared into paraffin blocks. The paraffin blocks were sliced to a thickness of 5 μm and the change in the thickness of the epidermal and dermal layers was observed by staining with hematoxylin/eosin.

[5] = system: IL4; assay: IL4 mRNA in skin tissue by quantitative real-time PCR, Nc/Nga; assay type: in vivo, mouse; conditions: atopy-induced Nc/Nga mice, normalized to β-actin
Experimental: as §1

[6] = system: pruritus caused by atopic contact dermatitis; assay: Pruritus inhibition test, pruritus induced with DNFB; assay type: in vivo, mouse; conditions: 0.1% in physiological saline applied once onto right ear, pruritus measured for 1 hour
Experimental: In order to investigate whether L-form, LID-form and D-form N-acetylalanine, N-acetylarginine, N-acetylthreonine and N-acetyltryptophan inhibit pruritus caused by atopic contact dermatitis, 20 μL of 0.1% 2,4-dinitrofluorobenzene (DNFB) solution and 0.1% N-acetylamino acid dissolved in physiological saline were applied once onto the right ear 10 minutes after the final treatment (day 27) with 2,4-dinitrofluorobenzene (DNFB) (Physiological saline was applied to a negative control group), and then pruritus was measured for 1 hour. FIG. 7 compares the pruritus-relieving effect of L-form N-acetylalanine, N-acetylthreonine, N-acetylarginine and N-acetyltryptophan with D/L-form and D-form N-acetylalanine and N-acetyltryptophan at 0.1% after the induction of pruritus with DNFB.

[7] = system: IgE; assay: Serum IgE level by ELISA, Nc/Nga; assay type: in vivo, mouse; conditions: atopy-induced Nc/Nga mice
Experimental: (§2) After treatment with the test substance, the mice were sacrificed and blood was taken from the heart. After isolating serum from the blood, IgE level was measured. Specifically, after attaching antibodies diluted in a buffer solution onto a 96-well plate and incubating overnight at 4° C., experiment was conducted using an IgE ELISA kit (BD Biosciences, San Diego, CA) according to the provided manual. The quantity of the IgE protein was determined by measuring absorbance at 450 nm using a microplate reader.

[8] = system: IgE; assay: Serum IgE level by ELISA, Balb/c; assay type: in vivo, mouse; conditions: atopy-induced Balb/c mice
Experimental: as §2

[9] = system: atopic dermatitis-induced Nc/Nga mouse; assay: SCORAD clinical skin score, DNFB-induced atopic dermatitis in Nc/Nga mouse; assay type: in vivo; conditions: for atopic dermatitis-treating effect (SCORAD, FIG. 3A) / dermatitis-treating effect of L-, L/D- and D-form (FIG. 6): Nc/Nga atopic dermatitis model; for atopic dermatitis-treating effect (SCORAD, FIG. 3A): 0.1% topical; for dermatitis-treating effect of L-, L/D- and D-form (FIG. 6): 0.1%; for effect in Nc/Nga model (back skin images, FIG. 3B): treated for 7 days, day 22
Experimental: In order to establish a model more similar to an atopy model than that of the Balb/c mice, atopy was induced in Nc/Nga mouse mice. Specifically, after inducing DNFB sensitization by applying 100 μL of 0.35% 2,4-dinitrofluorobenzene (DNFB) in acetone/olive oil (3:1) on the shaved back skin, dermatitis was induced by applying 100 μL of 0.15% DNFB for 4-20 days, every other day. Control mice were treated with a vehicle of the same volume (FIG. 1B).
After dissolving an N-acetyl or N-acylamino acid in phosphate-buffered saline to 0.1%, 200 μL of the solution was applied on the back skin of the mice every day, from day 22 until day 28 for the Balb/c atopic dermatitis model, and from day 15 until day 21 for the Nc/Nga atopic dermatitis model. When the N-acetyl or N-acylamino acid was treated together with DNFB, they were treated with 12-hour intervals in order to avoid direct reaction between the DNFB and the N-acetyl or N-acylamino acid. A non-treated group and a 2,4-dinitrofluorobenzene (DNFB) group were treated with phosphate-buffered saline of the same volume (FIGS. 1A-1B). As the N-acetylamino acid, products purchased from Sigma-Aldrich (USA), MP scientific (USA), TCI (Tokyo Chemical Industry, Japan), Santacruz (USA), etc. were used without purification.
The degree of skin soothing and the severity of atopic dermatitis were evaluated macroscopically according to the previously established SCORAD (SCORing Atopic Dermatitis) method (Oranje et al., 2007). The degree of symptoms such as edema, erythema, eschar, dryness, abrasion, lichenification, etc. was graded from 0 to 3 (0, no symptom; 1, mild; 2, moderate; 3, severe). The overall dermatitis score was determined from the sum of all individual scores (Table 1). The assessment was performed by an investigator who was blind to the grouping of the mice.
Skin-soothing effect and the severity of dermatitis were evaluated for the acyl derivatives of tryptophan synthesized in Example 9, the acyl derivative of alanine synthesized in Example 10 and N-palmitoylalanine (purchased from Santacruz (USA)) according to the method of Example 4 (Table 2)

[10] = system: interferon γ; assay: Interferon γ mRNA in skin tissue by quantitative real-time PCR, Balb/c; assay type: in vivo, mouse; conditions: atopy-induced Balb/c mice, normalized to β-actin
Experimental: as §1

[11] = listed as L-form N-acetylalanine
[12] = listed as L-form N-acetyltryptophan

SMILES | skin-soothing and atopic dermatitis-treating effect (SCORAD, Table 1, FIG. 2A) [1] | apparent degree of dermatitis (back skin images, FIG. 2B) [1] | Mouse 1 Erythema [1] | Mouse 1 Abrasion [1] | Mouse 1 Dryness [1] | Mouse 1 Edema [1] | Mouse 1 Eschar [1] | Mouse 1 Lichenification [1] | Mouse 1 Sum [1] | Mouse 2 Abrasion [1] | Mouse 2 Dryness [1] | Mouse 2 Edema [1] | Mouse 2 Erythema [1] | Mouse 2 Eschar [1] | Mouse 2 Lichenification [1] | Mouse 2 Sum [1] | Mouse 3 Abrasion [1] | Mouse 3 Dryness [1] | Mouse 3 Edema [1] | Mouse 3 Erythema [1] | also measured
CC(=O)N[C@@H](C)C(=O)O [N-acetyl-L-alanine] | significant skin-soothing and atopic dermatitis-treating effects; also recorded: significant atopic dermatitis-treating effect | decreased remarkably | 1 | 1 | 2 | 1 | 1 | 0 | 6 | 1 | 0 | 1 | 1 | 1 | 0 | 4 | 1 | 0 | 1 | 1 | Mouse 3 Eschar [1]: 1; Mouse 3 Lichenification [1]: 1; Mouse 3 Sum [1]: 5; Mean (of Sum, SCORAD) [1]: 5; level of interferon γ in the skin tissue (FIG. 5B) [2]: significantly decreased; level of IL4 in the skin tissue (FIG. 5A) [3]: significantly decreased; thickness of the epidermal and dermal layers (FIG. 3C) [4]: significantly decreased; level of IL4 in the skin tissue (FIG. 5B) [5]: significantly decreased; pruritus-relieving effect (FIG. 7) [6, 11]: significantly inhibited pruritus; serum IgE level (FIG. 4B) [7]: significant decrease; serum IgE level (FIG. 4A) [8]: significant decrease; atopic dermatitis-treating effect (SCORAD, FIG. 3A) [9]: showed atopic dermatitis-treating effect; dermatitis-treating effect of L-, L/D- and D-form (FIG. 6) [9, 11]: remarkable effect; effect in Nc/Nga model (back skin images, FIG. 3B) [9]: remarkable effect; level of interferon γ in the skin tissue (FIG. 5A) [10]: significantly decreased
CC(=O)N[C@@H](Cc1c[nH]c2ccccc12)C(=O)O [N-acetyl-L-tryptophan] | significant skin-soothing and atopic dermatitis-treating effects; also recorded: significant atopic dermatitis-treating effect | decreased remarkably | 1 | 1 | 0 | 1 | 1 | 1 | 5 | 0 | 1 | 1 | 0 | 1 | 0 | 3 | 2 | 0 | 0 | 0 | Mouse 3 Eschar [1]: 2; Mouse 3 Lichenification [1]: 0; Mouse 3 Sum [1]: 4; Mean (of Sum, SCORAD) [1]: 4; level of interferon γ in the skin tissue (FIG. 5B) [2]: significantly decreased; level of IL4 in the skin tissue (FIG. 5A) [3]: significantly decreased; thickness of the epidermal and dermal layers (FIG. 3C) [4]: significantly decreased; level of IL4 in the skin tissue (FIG. 5B) [5]: significantly decreased; pruritus-relieving effect (FIG. 7) [6, 12]: significantly inhibited pruritus; serum IgE level (FIG. 4B) [7]: significant decrease; serum IgE level (FIG. 4A) [8]: significant decrease; atopic dermatitis-treating effect (SCORAD, FIG. 3A) [9]: showed atopic dermatitis-treating effect; dermatitis-treating effect of L-, L/D- and D-form (FIG. 6) [9, 12]: remarkable effect; effect in Nc/Nga model (back skin images, FIG. 3B) [9]: remarkable effect; level of interferon γ in the skin tissue (FIG. 5A) [10]: significantly decreased
CC(=O)N[C@H](C(=O)O)[C@@H](C)O [N-acetyl-L-threonine] | significant skin-soothing and atopic dermatitis-treating effects; also recorded: significant atopic dermatitis-treating effect | decreased remarkably | 1 | 1 | 2 | 1 | 1 | 1 | 7 | 1 | 0 | 1 | 1 | 1 | 1 | 5 | 0 | 1 | 1 | 1 | Mouse 3 Eschar [1]: 2; Mouse 3 Lichenification [1]: 1; Mouse 3 Sum [1]: 6; Mean (of Sum, SCORAD) [1]: 6; level of IL4 in the skin tissue (FIG. 5A) [3]: significantly decreased; pruritus-relieving effect (FIG. 7) [6]: significantly inhibited pruritus; serum IgE level (FIG. 4A) [8]: significant decrease; level of interferon γ in the skin tissue (FIG. 5A) [10]: significantly decreased
